From patent US5470879A, “Treatment of non-insulin-dependent diabetes” (Laboratories Monal, priority 1992, dated 1995)
Where two headings read alike, the source gives them in different places.

Columns and labels:
[1] = system: isolated islets of Langerhans of rat pancreas; assay: Insulin secretion of isolated islets of Langerhans of rat pancreas (8.3 mM glucose, 1 hour); type: cell-based, Wistar rats
Description: (§1) In these examples, the pancreatic hormones (insulin and glucagon) were evaluated by radioimmunoassays.
This method, which has the advantage of necessitating only a small amount of substance, permits a direct study of the effects of the composition on pancreatic endocrine cells, especially insulin-secreting B cells, to the exclusion of any interference with the exocrine and related tissues.
The effect of different concentrations of 4-hydroxyisoleucine on insulin secretion was investigated on isolated islets of Wistar rats, incubated in the presence of 8.3 mM glucose (1.5 g/l) for 1 hour. The results obtained are recorded in FIG. 1, in which the histograms represent the insulin secretion measured over 60 minutes for each dose of 4-hydroxyisoleucine.
By way of comparison, the effects of two structural analogues of 4-hydroxyisoleucine, i.e. isoleucine and leucine, were observed under the same conditions, and it could be established that, with these two substances, the stimulatory effect on insulin secretion is apparent only with concentrations 50 to 100 times as high.

[2] = Acute intraperitoneal toxicity in Swiss mice; type: in vivo
Description: The acute toxicity was determined in Swiss mice of both sexes on intraperitoneal administration of a single dose of 1 gram per kilo of 4-hydroxyisoleucine. […] The LDo (zero lethal dose) is greater than 1 gram per kilo under our experimental conditions.

[3] = type: in vivo, Wistar rats
Description: as §1
(§2) Blood sugar level was assayed using a Technicon autoanalyzer by the potassium ferricyanide method.
The results were subjected to a variance analysis followed by the multiple comparison test.
(§3) During this experiment, Wistar rats were anaesthetized and then provided with catheters in both jugular veins. One catheter enables blood samples needed for the assay of plasma glucose and plasma insulin to be taken, the other catheter is used for the intravenous injection of the test substance.

[4] = Intravenous glucose tolerance test (IVGTT) in anaesthetized normal rats fed ad libitum; type: in vivo
Description: as §2, §3
Still in anaesthetized normal rats previously fed ad libitum, an intravenous glucose tolerance test was carried out.
Dissolved glucose was administered intravenously at a dose of 0.3 g/kg in one of the two jugular veins of the rat. […] In FIG. 3, "o" indicates the values observed when administering glucose alone, while ".cndot." indicates the values observed during the administration of glucose plus 4-hydroxyisoleucine.

[5] = Gastric intubation in fasted conscious normal dogs: blood insulin and sugar levels; type: in vivo; conditions: 9 mg/kg by gastric intubation
Description: as §1, §2
During a complementary experiment in dogs, we investigated whether 4-hydroxyisoleucine can be active after oral administration, and whether, in this case, this substance retains its insulin-secreting property and consequently its capacity to improve glucose tolerance.
(§4) Using conscious normal dogs kept fasted for 18 hours, 4-hydroxyisoleucine is dissolved in physiological saline and administered by gastric intubation at a dose of 9 mg/kg.
Blood samples drawn from one of the two jugular veins enabled the blood insulin and sugar levels of these animals to be evaluated. […] The arrows near the top of FIGS. 4A and 4B represent the approximate time of administration of the 4-hydroxyisoleucine.

[6] = Orally induced hyperglycaemia (OGTT) in fasted conscious normal dogs; type: in vivo
Description: as §2, §4
Dissolved glucose was administered by gastric intubation at a dose of 1 g/kg.
In FIG. 5, "o" represents values observed upon administering glucose alone; ".cndot." represents values observed in a trial in which glucose plus 4-hydroxyisoleucine is administered. The arrow toward the top of FIG. 5 represents the point of administration of the glucose or glucose plus 4-hydroxyisoleucine. When 4-hydroxyisoleucine (9 mg/kg) is added to the glucose solution administered by gastric intubation, the blood sugar level reaches only 120 mg/dl at the 30th minute, i.e. only +31%.

[7] = system: isolated and perfused rat pancreas; assay: Isolated and perfused rat pancreas: insulin secretion, vascular flow, glucagon (8.3 mM glucose); conditions: for Insulin secretion: glucose alone 810 ± 83
Description: as §1
To carry out this test, the pancreas was completely isolated from all the other neighbouring organs and tissues (spleen, stomach, duodenum, epiploic fat) and perfused in an open circuit with a physiological solution in a perfusion chamber. This preparation has the advantage of preserving the functional and vascular integrity of the organ while depriving it of the regulatory influences (humoral or nervous) to which it is normally subjected.
In this example, the experiments were carried out in the presence of an 8.3 mM concentration of glucose. Under these conditions, the effect on insulin secretion of a perfusion of 4-hydroxyisoleucine at a concentration of 200 μM for 10 minutes was studied. […] The perfusion of the 4-hydroxyisoleucine is indicated by the rectangular box with the lines extending downwardly from opposite sides of the box, near the top of the Figure.
The amounts of insulin secreted during the 10 minutes of perfusion are shown below: […]

[8] = 9 mg/kg I.V., -2 min (before injection)
[9] = 9 mg/kg I.V., -10 min (before injection)
[10] = 9 mg/kg I.V., -15 min (before injection)

Question: What does the source list for `C[C@@H]([C@H](C)O)[C@H](N)C(=O)O` [4-hydroxyisoleucine]?
Answer: minimal effective concentration ([1]; Rattus norvegicus, 1 h, read-out: concentration at which a stimulatory effect on insulin secretion is apparent): 200 µM; dose dependence of stimulation of insulin secretion ([1]; isolated rat islets, 8.3 mM glucose): increases slightly with the dose; mode of stimulation of insulin secretion ([1]; summary of "in vitro" tests): direct effect on the B cell of the islet of Langerhans; macroscopic deleterious effect on the main organs at autopsy ([2]; 1 gram per kilo intraperitoneal, thymus, heart, lungs, liver, stomach, kidneys, adrenals, pancreas, duodenum, genital tract, bladder): does not appear to disclose any macroscopic deleterious effect; LDo (zero lethal dose) ([2]; intraperitoneal, single dose): greater than 1 gram per kilo; toxic phenomenon over 15 days ([2]; single dose 1 gram per kilo intraperitoneal): does not appear to detect any toxic phenomenon; effect on plasma insulin level ([3]; 9 mg/kg I.V.): immediate and particularly important increase; time after injection at which reduction in circulating glucose level becomes significant ([3]; 9 mg/kg I.V.): 15 min; Blood sugar level ([3]; 9 mg/kg I.V., 2 min): 1.26 ± 0.08 g/L; Plasma insulin ([3]; 9 mg/kg I.V., 2 min): 4.4 ± 1.1 ng/mL; Blood sugar level ([3]; 9 mg/kg I.V., 5 min): 1.18 ± 0.04 g/L; Plasma insulin ([3]; 9 mg/kg I.V., 5 min): 9.1 ± 1.0 ng/mL; Blood sugar level ([3]; 9 mg/kg I.V., 15 min): 0.94 ± 0.09 g/L; Plasma insulin ([3]; 9 mg/kg I.V., 15 min): 18.5 ± 1.5 ng/mL; Blood sugar level ([3]; 9 mg/kg I.V., 30 min): 0.99 ± 0.10 g/L; Plasma insulin ([3]; 9 mg/kg I.V., 30 min): 18.6 ± 1.5 ng/mL; Blood sugar level ([3]; 9 mg/kg I.V., 45 min): 0.99 ± 0.12 g/L; Plasma insulin ([3]; 9 mg/kg I.V., 45 min): 14.5 ± 4.8 ng/mL; Blood sugar level ([3]; 9 mg/kg I.V., 60 min): 0.94 ± 0.10 g/L; Plasma insulin ([3]; 9 mg/kg I.V., 60 min): 14.4 ± 4.8 ng/mL; Blood sugar level ([3]; 9 mg/kg I.V., 90 min): 0.89 ± 0.12 g/L; Plasma insulin ([3]; 9 mg/kg I.V., 90 min): 14.9 ± 5.2 ng/mL; Blood sugar level [3, 8]: 1.34 ± 0.07 g/L; Plasma insulin [3, 8]: 3.4 ± 1.1 ng/mL; Blood sugar level [3, 9]: 1.38 ± 0.09 g/L; Plasma insulin [3, 9]: 2.4 ± 0.1 ng/mL; Blood sugar level [3, 10]: 1.32 ± 0.09 g/L; Plasma insulin [3, 10]: 2.8 ± 0.2 ng/mL; reduction in circulating glucose level relative to the starting value ([3]; 9 mg/kg I.V., at the 90th minute): approximately 30%; side effect secondary to the injection (polypnea, tachycardia, hypoxia) ([3]; I.V. injection, anaesthetized rats): no side effect; effect on induced hyperglycaemia ([4]; 9 mg/kg I.V. with glucose 0.3 g/kg I.V.): markedly reduced; Blood sugar level ([4]; 9 mg/kg I.V. with glucose 0.3 g/kg I.V., 3rd minute, glucose alone 282 mg/dl): 204 mg/dL; change in blood sugar level ([4]; 9 mg/kg I.V. with glucose 0.3 g/kg I.V., 3rd minute, glucose alone +112%): +58%; glucose tolerance ([4]; rat, intravenously, summary statement): improves glucose tolerance; duration of hyperinsulinaemia ([5]; fasted): 5 min; effect on blood sugar level ([5]; fasted): gradual and discrete reduction in blood sugar level; rise in blood insulin level ([5]; from the 3rd minute): +277%; Blood sugar level ([6]; 9 mg/kg intragastric with glucose 1 g/kg, 30th minute, glucose alone 166 mg/dl): 120 mg/dL; change in blood sugar level ([6]; 9 mg/kg intragastric with glucose 1 g/kg, 30th minute, glucose alone +85%): +31%; glucose tolerance ([6]; dog, orally, summary statement): improves glucose tolerance; Insulin secretion ([7]; 50 μM): 1232 ± 93 ng/10 min; Insulin secretion ([7]; 200 μM): 1520 ± 154 ng/10 min; effect on insulin secretion (time course) ([7]; 200 μM, perfusion for 10 minutes): stimulation is immediate and in two phases, and persists throughout the period of the perfusion; Insulin secretion ([7]; 500 μM): 2206 ± 213 ng/10 min; concentration dependence of stimulatory effect on insulin secretion ([7]; 50 to 500 μM): stimulatory effect increases with the 4-hydroxyisoleucine concentration; pancreatic vascular flow and level of pancreatic glucagon ([7]; during perfusion): no modification
